From ChEMBL document CHEMBL1201862, “PubChem BioAssay data set” (2004)
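Exposure lasted 48 hours, with cells grown in 96-well plates and compounds tested at five concentrations. GI50: concentration for 50% inhibition of growth.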 The source made the active and inactive calls. Rule as the data show it: active = GI50 up to about 1.1 µM and inactive = higher.

Legend:
Assay in all cases: DTP human tumour cell line panel, 48 h
M14 = system: M14
SK-MEL-28 = system: SK-MEL-28
MDA-N = system: MDA-N
HCT-15 = system: HCT-15
T47D = system: T47D
SNB-19 = system: SNB-19
IGROV-1 = system: IGROV-1
ACHN = system: ACHN
MDA-MB-435 = system: MDA-MB-435
OVCAR-3 = system: OVCAR-3
SF-268 = system: SF-268
MOLT-4 = system: MOLT-4
A549 = system: A549
UO-31 = system: UO-31
A498 = system: A498
SK-MEL-2 = system: SK-MEL-2
U-251 = system: U-251
UACC-257 = system: UACC-257
BT-549 = system: BT-549

| SMILES | GI50 (M14) | GI50 (SK-MEL-28) | GI50 (MDA-N) | GI50 (HCT-15) [µM] | GI50 (T47D) | GI50 (SNB-19) | GI50 (IGROV-1) | GI50 (ACHN) | GI50 (MDA-MB-435) | GI50 (OVCAR-3) | GI50 (SF-268) | GI50 (MOLT-4) | GI50 (A549) | GI50 (UO-31) | GI50 (A498) | GI50 (SK-MEL-2) | GI50 (U-251) | GI50 (UACC-257) | GI50 (BT-549) |
| --- | --- | --- | --- | --- | --- | --- | --- | --- | --- | --- | --- | --- | --- | --- | --- | --- | --- | --- | --- |
| C[C@@H]1CC[C@]2(C)C3(C)CC[C@]2(OC3=O)[C@@]12CC(c1ccoc1)OC2=O (stereo not given in full) | 25.1 µM (inactive) | 26.7 µM (inactive) | 34.4 µM (inactive) | 31.4 | > 100 µM (inactive) | > 100 µM (inactive) | 26.9 µM (inactive) | 22.4 µM (inactive) | 25.3 µM (inactive) | 26.2 µM (inactive) | 37.2 µM (inactive) | 31 µM (inactive) | > 100 µM (inactive) | 28 µM (inactive) | > 100 µM (inactive) | 58.6 µM (inactive) | 44.5 µM (inactive) |  |  |
| O=C(CC(=O)N1N=C(N(c2ccccc2)c2ccccc2)CC1c1ccccc1)Nc1cccc(Cl)c1 (stereo not given) | > 100 µM (inactive) | > 100 µM (inactive) |  | > 100 | > 100 µM (inactive) | > 100 µM (inactive) | > 100 µM (inactive) | > 100 µM (inactive) | > 100 µM (inactive) | > 100 µM (inactive) | > 100 µM (inactive) | > 100 µM (inactive) | > 100 µM (inactive) | > 100 µM (inactive) |  | > 100 µM (inactive) | > 100 µM (inactive) | > 100 µM (inactive) | > 100 µM (inactive) |
| O=C1OC2C(O)C(=O)OC2C1O (stereo not given) | > 100 µM (inactive) | > 100 µM (inactive) | > 100 µM (inactive) | > 100 | > 100 µM (inactive) | > 100 µM (inactive) | > 100 µM (inactive) | > 100 µM (inactive) | > 100 µM (inactive) | > 100 µM (inactive) | > 100 µM (inactive) | > 100 µM (inactive) | > 100 µM (inactive) | > 100 µM (inactive) | > 100 µM (inactive) | > 100 µM (inactive) | > 100 µM (inactive) | > 100 µM (inactive) |  |
| Cc1ccc(S(=O)(=O)NC(=O)Nc2nnc(S(N)(=O)=O)s2)cc1 | > 100 µM (inactive) |  |  | > 100 |  | > 100 µM (inactive) |  | > 100 µM (inactive) | > 100 µM (inactive) | > 100 µM (inactive) | > 100 µM (inactive) | > 100 µM (inactive) | > 100 µM (inactive) | > 100 µM (inactive) | > 100 µM (inactive) | > 100 µM (inactive) | > 100 µM (inactive) |  |  |
| COc1ccc(C[C@@H]2CN(C(=O)c3ccccc3)[C@H](Cc3ccc(O)cc3)CN2C(=O)c2ccccc2)cc1Br | > 100 µM (inactive) | > 100 µM (inactive) |  | > 100 | > 100 µM (inactive) | > 100 µM (inactive) | > 100 µM (inactive) | > 100 µM (inactive) | > 100 µM (inactive) | > 100 µM (inactive) | > 100 µM (inactive) | > 100 µM (inactive) | > 100 µM (inactive) | > 100 µM (inactive) | > 100 µM (inactive) | > 100 µM (inactive) |  | > 100 µM (inactive) | > 100 µM (inactive) |
| O=C1/C(=C/c2ccc(O)cc2)CCC1CNc1ccccc1 (stereo not given) | 12.2 µM (inactive) | 15.4 µM (inactive) |  | 5.05 | 10.3 µM (inactive) | 16.3 µM (inactive) | 11.3 µM (inactive) | 12.3 µM (inactive) | 18.7 µM (inactive) | 14.6 µM (inactive) | 14.8 µM (inactive) | 1.85 µM (inactive) | 17.8 µM (inactive) | 15.6 µM (inactive) | 17.9 µM (inactive) |  | 16.4 µM (inactive) | 16.7 µM (inactive) | 14.5 µM (inactive) |
| COC(=O)C1C(O)C(C)C(=O)C(C)/C=C\C=C(C)C(=O)Nc2c(C)c(OC(C)=O)c3c(c2O)C(=O)C(C)=C2OCOC(=C23)C(C)=CC(C)(O)C(O)C(C)C1O (stereo not given) | 25.4 µM (inactive) | 27.4 µM (inactive) |  | 21.6 | 33.3 µM (inactive) | > 100 µM (inactive) | 21.7 µM (inactive) | 26.2 µM (inactive) | 39.2 µM (inactive) | 42.4 µM (inactive) | 99.8 µM (inactive) | 29.4 µM (inactive) | 20.2 µM (inactive) | 23.5 µM (inactive) | 24.9 µM (inactive) | 25.2 µM (inactive) | 96.8 µM (inactive) | 18.8 µM (inactive) | 42 µM (inactive) |
| COc1ccc(C2OC2C(=O)C23CC4CC(CC(C4)C2)C3)cc1 (stereo not given) | > 100 µM (inactive) | > 100 µM (inactive) | 37.8 µM (inactive) | 41.4 | 14.4 µM (inactive) | 33.3 µM (inactive) | 71.1 µM (inactive) | > 100 µM (inactive) | 48.6 µM (inactive) | > 100 µM (inactive) | 54.6 µM (inactive) | 47.1 µM (inactive) | 45.6 µM (inactive) | > 100 µM (inactive) | > 100 µM (inactive) |  | 36.1 µM (inactive) | 54.6 µM (inactive) |  |
| CCOc1ccc(NCc2cc(OC)c(OC)c(OC)c2)cc1 | 0.425 µM (active) | 2.99 µM (inactive) |  | 0.303 |  | 2.88 µM (inactive) | 2.4 µM (inactive) | 6.15 µM (inactive) |  | 0.388 µM (active) | 3.4 µM (inactive) | 0.822 µM (active) | 1.68 µM (inactive) | 9.02 µM (inactive) |  |  | 0.536 µM (active) | 19.7 µM (inactive) | 0.125 µM (active) |
| Cc1[nH]c2ccccc2c1C1CC(=O)NC1=O (stereo not given) | > 100 µM (inactive) | > 100 µM (inactive) |  | > 100 |  |  | > 100 µM (inactive) | > 100 µM (inactive) |  | > 100 µM (inactive) |  | > 100 µM (inactive) | > 100 µM (inactive) | > 100 µM (inactive) | > 100 µM (inactive) | > 100 µM (inactive) | > 100 µM (inactive) | > 100 µM (inactive) |  |
| Nc1nc(O)c(Br)c(-c2cccc([N+](=O)[O-])c2)n1 | > 38.8 µM (inactive) | > 100 µM (inactive) |  | > 100 | 91 µM (inactive) | 25.9 µM (inactive) | > 83.8 µM (inactive) | > 67.9 µM (inactive) | > 100 µM (inactive) | > 100 µM (inactive) | > 82.4 µM (inactive) | > 77.4 µM (inactive) | > 46.9 µM (inactive) | > 62.1 µM (inactive) | > 100 µM (inactive) | > 100 µM (inactive) | > 100 µM (inactive) | > 55 µM (inactive) | 38.6 µM (inactive) |
| C[n+]1c2ccccc2c(N=[N+]=[N-])c2ccccc21 | > 10 µM (inactive) | > 10 µM (inactive) |  | 5.66 | > 10 µM (inactive) | 9.18 µM (inactive) | 7.03 µM (inactive) | 4.13 µM (inactive) | 7.14 µM (inactive) | > 10 µM (inactive) | > 10 µM (inactive) | 4.69 µM (inactive) | 6.44 µM (inactive) |  | 6.3 µM (inactive) | > 10 µM (inactive) | 9.93 µM (inactive) | > 10 µM (inactive) | > 10 µM (inactive) |
| CN(C)c1ccc(NN=C2SC(=N\c3ccccc3)/C(=N/c3ccccc3)S2)cc1 |  | > 100 µM (inactive) | 20.3 µM (inactive) | 9.31 | 12.3 µM (inactive) | > 100 µM (inactive) | > 100 µM (inactive) | > 100 µM (inactive) | 20.4 µM (inactive) |  | > 100 µM (inactive) | 47.2 µM (inactive) | 66.2 µM (inactive) | 52.4 µM (inactive) | 50 µM (inactive) | 13.6 µM (inactive) | > 100 µM (inactive) | 8.2 µM (inactive) |  |
| CCN(CCCl)c1cc(CN(C)C)cc(NC(=O)C23CCC(C(=O)Nc4cc(CN(C)C)cc(N(CC)CCCl)c4)(CC2)CC3)c1 | 2.97 µM (inactive) | 1.75 µM (inactive) | 1.12 µM (inactive) | 13.4 | 3.03 µM (inactive) | 0.113 µM (active) | 1.44 µM (inactive) | 2.22 µM (inactive) | 1.39 µM (inactive) |  | 0.23 µM (active) | < 0.01 µM (active) | 1.03 µM (active) | 17.1 µM (inactive) | 6.44 µM (inactive) | 2.39 µM (inactive) | 0.764 µM (active) | 3.96 µM (inactive) |  |
| C=CC(C)(C)C(=C)C(=O)N(C)c1ccccc1I | > 100 µM (inactive) | > 100 µM (inactive) | > 100 µM (inactive) | > 100 | > 100 µM (inactive) | > 100 µM (inactive) |  | > 100 µM (inactive) | > 100 µM (inactive) | > 100 µM (inactive) | > 100 µM (inactive) | 83.2 µM (inactive) | > 100 µM (inactive) | > 100 µM (inactive) | > 100 µM (inactive) | > 100 µM (inactive) | > 100 µM (inactive) | > 100 µM (inactive) |  |
| Cc1cc2c3c([nH]c2c2ccnc(C)c12)CCCC3 | 1.9 µM (inactive) | 1.76 µM (inactive) | 1.78 µM (inactive) | 1.86 | 2.15 µM (inactive) |  | 2.23 µM (inactive) | 4.1 µM (inactive) | 1.88 µM (inactive) | 2.14 µM (inactive) | 3.75 µM (inactive) | 2.01 µM (inactive) | 2.12 µM (inactive) | 2.05 µM (inactive) |  | 1.62 µM (inactive) | 1.88 µM (inactive) | 1.81 µM (inactive) |  |
| O=C1c2c(ccc3c2CCCC3)CC12Cc1ccc3c(c1C2=O)CCCC3 | > 100 µM (inactive) | > 100 µM (inactive) | > 100 µM (inactive) | > 100 | > 100 µM (inactive) | > 100 µM (inactive) | > 100 µM (inactive) | > 100 µM (inactive) | > 100 µM (inactive) | > 100 µM (inactive) | > 100 µM (inactive) | > 100 µM (inactive) | > 100 µM (inactive) | > 100 µM (inactive) | 89.1 µM (inactive) | > 100 µM (inactive) | 56.9 µM (inactive) | > 100 µM (inactive) |  |
